Test results as given in BigSolDB 2.1.

O=C1CCC(=O)O1
solubility (mole fraction)
Conditions | 283.15 K | 288.15 K | 293.15 K | 298.15 K | 303.15 K | 308.15 K | 313.15 K | 318.15 K | 323.15 K
in THF | 0.071 | 0.077 | 0.085 | 0.093 | 0.104 | 0.115 | 0.129 | 0.145 | 0.164
in gamma-butyrolactone | 0.197 | 0.218 | 0.239 | 0.261 | 0.283 | 0.307 | 0.331 | 0.354 | 0.378
